What was measured:
[1] = target: Mu-type opioid receptor (Cavia porcellus, UniProt P97266); test: Compound was evaluated for the inhibition of Opioid receptor mu 1 binding to guinea pig brain membranes, using [3H]- DAMGO as radioligand
[2] = target: Kappa-type opioid receptor (Cavia porcellus, UniProt P41144); test: Compound was evaluated for the inhibition of Opioid receptor kappa1 binding to guinea pig brain membranes, using 1 nM [3H]- U69,593 as radioligand
[3] = Nonspecific binding was evaluated by Phycoerythrin fluorescent labeling of R1EGO mouse thymoma cells; format: functional
[4] = Percent specific binding was evaluated by Phycoerythrin fluorescent labeling of R1EGO mouse thymoma cells; format: functional
[5] = Specific binding was evaluated by Phycoerythrin fluorescent labeling of R1EGO mouse thymoma cells; format: functional
[6] = Total binding was evaluated by Phycoerythrin fluorescent labeling of R1EGO mouse thymoma cells; format: functional

Sequence of Kappa-type opioid receptor (P41144 whole entry): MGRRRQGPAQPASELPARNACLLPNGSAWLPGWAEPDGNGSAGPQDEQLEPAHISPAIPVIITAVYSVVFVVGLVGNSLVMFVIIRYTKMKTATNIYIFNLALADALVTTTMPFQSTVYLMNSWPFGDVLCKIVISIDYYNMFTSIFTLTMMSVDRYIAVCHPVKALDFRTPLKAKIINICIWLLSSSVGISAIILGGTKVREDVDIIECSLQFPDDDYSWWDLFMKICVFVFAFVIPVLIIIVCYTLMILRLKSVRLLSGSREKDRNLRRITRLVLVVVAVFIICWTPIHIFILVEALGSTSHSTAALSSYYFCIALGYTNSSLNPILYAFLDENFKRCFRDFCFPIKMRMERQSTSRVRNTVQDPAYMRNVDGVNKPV
Sequence of Mu-type opioid receptor (P97266 whole entry): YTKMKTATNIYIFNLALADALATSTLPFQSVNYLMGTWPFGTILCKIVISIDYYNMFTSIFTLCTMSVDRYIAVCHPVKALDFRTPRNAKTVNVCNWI

Compound: CN(C(=O)Cc1ccc(Cl)c(Cl)c1)C(CN1CCCC1)c1cccc(N/C(S)=N/c2ccc(-c3c4ccc(=O)cc-4oc4cc(O)ccc34)c(C(=O)O)c2)c1 (stereo unspecified)
- Ki [1]: 176 nM
- Ki [2]: 8.2 nM

Compound: CN(C(=O)Cc1ccc(Cl)c(Cl)c1)[C@H](CN1CCCC1)c1cccc(N/C(S)=N/c2ccc(-c3c4ccc(=O)cc-4oc4cc(O)ccc34)c(C(=O)O)c2)c1
- Non-specific binding [3]: 7
- Binding [4]: 91%
- Ki [1]: 98 nM
- Ki [2]: 1.4 nM
- Specific binding [5]: 57
- Total binding [6]: 64

Compound: CN(C(=O)Cc1ccc(Cl)c(Cl)c1)[C@@H](CN1CCCC1)c1cccc(N/C(S)=N/c2ccc(-c3c4ccc(=O)cc-4oc4cc(O)ccc34)c(C(=O)O)c2)c1
- Non-specific binding [3]: -5
- Ki [1]: 1190 nM
- Ki [2]: 139 nM
- Total binding [6]: 12

Compound: CC(=O)Nc1cccc([C@H](CN2CCCC2)N(C)C(=O)Cc2ccc(Cl)c(Cl)c2)c1
- Ki [1]: 1040 nM
- Ki [2]: 17.5 nM

Compound: CC(=O)Nc1cccc([C@@H](CN2CCCC2)N(C)C(=O)Cc2ccc(Cl)c(Cl)c2)c1
- Ki [1]: 8.37 nM
- Ki [2]: 0.0855 nM

— ChEMBL document CHEMBL1151564, “Arylacetamide kappa-selective opioid ligands” (Bioorg Med Chem Lett, 1997)
